The text below walks through data of publication PMC9729869, “Functional verification and characterization of a type-III geranylgeranyl diphosphate synthase gene from Sporobolomyces pararoseus NGR” (Frontiers in Microbiology, 2022).

The assay has as its target T1, CrtE (geranylgeranyl diphosphate synthase, GGPPS) (Sporobolomyces pararoseus, UniProt A0A2P1HA31).
T1 construct: dimer only in the predicted model
The experiment in a line: TLC of dephosphorylated product (GGOH). The format is biochemical.

T1 sequence (A0A2P1HA31 1-377): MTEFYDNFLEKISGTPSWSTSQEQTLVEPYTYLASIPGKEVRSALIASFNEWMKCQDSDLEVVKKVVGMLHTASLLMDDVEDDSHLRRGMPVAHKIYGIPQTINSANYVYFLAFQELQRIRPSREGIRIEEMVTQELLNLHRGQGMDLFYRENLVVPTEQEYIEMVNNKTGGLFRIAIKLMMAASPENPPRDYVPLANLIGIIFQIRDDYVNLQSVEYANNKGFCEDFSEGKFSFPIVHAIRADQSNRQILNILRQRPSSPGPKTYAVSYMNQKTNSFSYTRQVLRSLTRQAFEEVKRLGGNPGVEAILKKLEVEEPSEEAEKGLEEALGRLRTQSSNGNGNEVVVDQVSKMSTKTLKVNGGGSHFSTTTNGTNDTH

Consider `CC(C)=CCC/C(C)=C/CC/C(C)=C/COP(=O)(O)OP(=O)(O)O` [FPP, farnesyl diphosphate], for which the “TLC of dephosphorylated product (GGOH)” value (50 uM FPP, 50 uM IPP, 10 ng CrtE in 200 uL, 100 mM HEPES with 5 mM MgCl2 (enzyme exchange buffer) pH 7.5, 28 C, 2 h, Trx/His/S tags kept) is “largest number of GGPP was produced using FPP”.
Take `C=C(C)CCOP(=O)(O)OP(=O)(O)O` [IPP, isopentenyl diphosphate]: the “TLC of dephosphorylated product (GGOH)” value (50 uM IPP with 50 uM allylic co-substrate (FPP, GPP or DMAPP), else same) was “using three different allylic substrates and IPP as substrates for the reaction”.
